Measurements published in patent US20250152751A1, “RED-SHIFTED FLUOROPHORES AND METHODS OF USING THE SAME” (GEORGIA STATE UNIVERSITY RESEARCH FOUNDATION, INC., priority 2022, published 2025).

Assays:
[1] = Optical properties of the fluorophores measured in ethanol, compared to ICG; format: physicochemical; settings: for Φ^a (%): compared to ICG
In short: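 Using ethanol as the solvent, the optical behaviour of each fluorophore was characterised relative to a reference dye. The read-outs were the absorption maximum, the emission maximum, the Stokes shift, the quantum yield and the molar extinction coefficient.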

[2] = Solvatochromism: absorption maximum in different solvents; format: physicochemical

Stokes Shift (nm) [1] [nm] | λabs (nm) [1] [nm] | λem (nm) [1] [nm] | ϵ (cm^−1 M^−1) [1] | Φ^a (%) [1] [%] | λabs (nm) Acetonitrile [2] [nm] | λabs (nm) DMSO [2] [nm] | λabs (nm) Ethanol [2] [nm] | λabs (nm) Methanol [2] [nm] | Compound
101 | 685 | 786 | 78,200 cm^−1 M^−1 | 16.7 | 660 | 690 | 685 | 675 | CCN1C(=CC=C2CCCC(C=C(C#N)C(=O)O)=C2N2CCC(CO)CC2)C(C)(C)c2ccccc21 [Compound 80]
124 | 675 | 794 | 61,000 cm^−1 M^−1 | 17.3 | 640 | 670 | 675 | 665 | CCN1C(=CC=C2CCCC(C=C(C#N)C(=O)O)=C2N2CCC(CO)CC2)C(C)(C)c2cc(Br)ccc21 [Compound 82]

Further lines, the compound ahead of its results:

Compound | Stokes Shift (nm) [1] [nm] | λabs (nm) [1] [nm] | λem (nm) [1] [nm] | ϵ (cm^−1 M^−1) [1] | Φ^a (%) [1] [%] | λabs (nm) Acetonitrile [2] [nm] | λabs (nm) DMSO [2] [nm] | λabs (nm) Ethanol [2] [nm] | λabs (nm) Methanol [2] [nm]
CCCCN1C(=CC=C2CCCC(C=C(C#N)C(=O)O)=C2Sc2ccncc2)C(C)(C)c2ccccc21 [Compound 78] | 15 | 800 | 815 | 166,300 cm^−1 M^−1 | 11.3 | 795 | 810 | 800 | 800
CCN1/C(=C/C=C2\CC(C(C)(C)C)CC(/C=C(\C#N)C(=O)O)=C2Sc2ccncc2)C(C)(C)c2cc(Cl)ccc21 (stereo not drawn) [Compound 79] | 13 | 805 | 818 | 147,300 cm^−1 M^−1 | 11.3 | 800 | 815 | 805 | 800
CCN1C(=CC=C2CC(C(C)(C)C)CC(C=C(C#N)C(=O)O)=C2N2CCC(CO)CC2)C(C)(C)c2ccccc21 (stereo not drawn) [Compound 84] | 124 | 660 | 784 | 75,100 cm^−1 M^−1 | 18.6 | 640 | 665 | 660 | 650
